Laboratory results as given in patent US20230285405A1, “Pharmaceuticals for Treating or Preventing Nidoviruses and Picornaviruses” (priority 2020, published 2023).
Counter-ions that a name gives are not always drawn. Like-named read-outs stand apart in the source and are kept apart here.

Assays:
A549-mRuby cells = assay: Drug screening: effect on cell growth (cell number day 4 / day 0); settings: 10 μM drug; for Growth_1: number of cells at day 4 divided by number of cells at day 0 / toxic_1: repeat #1; for Growth_2: number of cells at day 4 divided by number of cells at day 0 / toxic_2: repeat #2
Summary of the method: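 A549 cells carrying an H2B-mRuby reporter were infected with OC43 at MOI 0.3 for 1 h at 33° C, then given drug at 10 μM final. Cell numbers were counted by imaging at day 0 and again at day 4 after 4 days at 33° C, 5% CO2, with the screen run twice.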

OC43 = assay: Drug screening: OC43 nucleoprotein staining in infected A549-mRuby cells; format: cell-based, human beta coronavirus OC43
Summary of the method: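 A549 cells expressing H2B-mRuby infected with OC43 at MOI 0.3 for 1 h at 33° C, then drugs added at 10 μM final and incubated 4 days at 33° C. Viral nucleoprotein immunostained and imaged; intensity normalized to cell number and no-drug controls (=100). Hits reduced staining >3 SD in both repeats without toxicity.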

[1] = Betacoronavirus 1, OC43, 96 h, 10 μM drug, MOI 0.3, 4 days, normalized to no-drug controls in the same plate, repeat #1, read-out: OC43_1: % staining of OC43 in screen repeat #1
[2] = Betacoronavirus 1, OC43, 96 h, 10 μM drug, MOI 0.3, 4 days, normalized to no-drug controls in the same plate, repeat #2, read-out: OC43_2: % staining of OC43 in screen repeat #2
[3] = Betacoronavirus 1, OC43, 96 h, 10 μM drug, MOI 0.3, 4 days, OC43 staining normalized to no-drug controls, mean of the two screen repeats, read-out: OC43_mean
[4] = 10 μM drug, MOI 0.3, 4 days, OC43 staining normalized to no-drug controls, mean of the two screen repeats
[5] = 10 μM drug, MOI 0.3, 4 days, normalized to no-drug controls in the same plate, repeat #1
[6] = 10 μM drug, MOI 0.3, 4 days, normalized to no-drug controls in the same plate, repeat #2

| Compound | Growth_1: number of cells at day 4 divided by number of cells at day 0 (A549-mRuby cells) | toxic_1 (A549-mRuby cells) | Growth_2: number of cells at day 4 divided by number of cells at day 0 (A549-mRuby cells) | toxic_2 (A549-mRuby cells) | hit_1 (OC43; 10 μM drug, repeat #1) | hit_2 (OC43; 10 μM drug, repeat #2) | activity at 10 µM (OC43; Betacoronavirus 1, 96 h, 10 μM drug, MOI 0.3, 4 days, OC43 staining normalized to no-drug controls, mean of the two screen repeats, read-out: OC43_mean) | activity at 10 µM (OC43; [1]) | activity at 10 µM (OC43; [2]) | activity at 10 µM (OC43; [3]) | OC43_mean (OC43; [4]) | OC43_1: % staining of OC43 in screen repeat #1 (OC43; [5]) | OC43_2: % staining of OC43 in screen repeat #2 (OC43; [6]) | OC43_mean (OC43) |
| --- | --- | --- | --- | --- | --- | --- | --- | --- | --- | --- | --- | --- | --- | --- |
| C=C[C@]1(C)C[C@@H](OC(=O)CSC(C)(C)CNC(=O)[C@H](N)C(C)C)[C@]2(C)[C@H](C)CC[C@]3(CCC(=O)[C@H]32)[C@@H](C)[C@@H]1O [Valnemulin HCl] | 4.4 | 0 | 4.5 | 0 | 1 | 1 | 32.4% | 27.7% | 37.1% |  |  |  |  |  |
| CCOC(=O)N[C@@H]1CC[C@@H]2[C@@H](C1)C[C@H]1C(=O)O[C@H](C)[C@H]1[C@H]2/C=C/c1ccc(-c2cccc(F)c2)cn1 [Vorapaxar] | 4.4 | 0 | 4.1 | 0 | 1 | 1 |  | 53.5% | 48.3% | 50.9% |  |  |  |  |
| Cc1cc(C(C)(C)C)cc(C)c1CC1=NCCN1 [Xylometazoline HCl] | 5.4 | 0 | 5.7 | 0 | 1 | 1 |  | 54% | 45.4% | 49.7% |  |  |  |  |
| Alimemazine Tartrate | 2.6 | 0 | 2.2 | 0 | 1 | 1 |  |  |  |  | 40.8% | 47.9% | 33.7% |  |
| Carvedilol Phosphate | 4.4 | 0 | 2.9 | 0 | 1 | 1 |  |  |  |  | 28.9% | 32.3% | 25.5% |  |
| Dimemorfan phosphate | 6.0 | 0 | 5.4 | 0 | 1 | 1 |  |  |  |  |  | 39.7% | 26.2% | 33.0% |
| Ibutilide Fumarate | 4.8 | 0 | 4.8 | 0 | 1 | 1 |  |  |  |  | 54.4% | 45.9% | 63.0% |  |
| Ifenprodil Tartrate | 4.6 | 0 | 4.9 | 0 | 1 | 1 |  |  |  |  | 25.6% | 29.0% | 22.1% |  |
| Pizotifen Malate | 3.4 | 0 | 2.8 | 0 | 1 | 1 |  |  |  |  | 25.4% | 33.3% | 17.5% |  |
| Prochlorperazine dimaleate salt | 3.1 | 0 | 3.1 | 0 | 1 | 1 |  |  |  |  | 40.2% | 47.2% | 33.1% |  |
